Results: PubChem BioAssay (NCI)
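Dose response: 5 concentrations. Exposure: 48 h. Format: 96-well plates. Endpoint: linear interpolation; highest concentration if not reached. Here, GI50 denotes the concentration required for 50% inhibition of growth. TGI is the concentration that stops growth completely.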

How the values were obtained:
Assay in all cases: growth of human tumour cells (NCI), 48 h
CAKI-1 renal = test system: CAKI-1 renal
HOP-62 NSCLC = test system: HOP-62 NSCLC
OVCAR-5 ovarian = test system: OVCAR-5 ovarian
ACHN renal = test system: ACHN renal
NCI-H460 lung = test system: NCI-H460 lung
HOP-92 NSCLC = test system: HOP-92 NSCLC
SR leukemia = test system: SR leukemia
NCI-H522 lung = test system: NCI-H522 lung

Row | Structure (SMILES) | GI50 (CAKI-1 renal) [µM] | TGI (CAKI-1 renal) [µM] | GI50 (HOP-62 NSCLC) [µM] | TGI (HOP-62 NSCLC) [µM] | GI50 (OVCAR-5 ovarian) [µM] | TGI (OVCAR-5 ovarian) [µM] | GI50 (ACHN renal) [µM] | TGI (ACHN renal) [µM] | GI50 (NCI-H460 lung) [µM] | TGI (NCI-H460 lung) [µM] | GI50 (HOP-92 NSCLC) [µM] | TGI (HOP-92 NSCLC) [µM] | GI50 (SR leukemia) [µM] | TGI (SR leukemia) [µM] | GI50 (NCI-H522 lung) [µM] | TGI (NCI-H522 lung) [µM]
1 | O=C(Nc1cccc(Nc2ncc(Br)c(NCCc3cnc[nH]3)n2)c1)N1CCCC1 | 7.14 | 33.2 | 2.35 | 14.7 | 9.29 | 73.1 | 11 | 56 | 3.68 | 15 | 0.932 | 7.93 | 0.527 | 28 | 11.5 | 27.6
2 | C[C@@H]1O[C@@H](O[C@H]2CC[C@@]3(C)[C@H](CCC4[C@@H]3C(O)C[C@]3(C)[C@@H](c5ccc(=O)oc5)CC[C@]43O)C2)[C@H](O)[C@H](O)[C@H]1O (stereo not given in full) | 0.0042 | 0.0154 | 0.00389 | 0.0057 | 0.00583 | < 0.0113 | < 0.00325 | 0.00803 | < 0.00325 | 0.00509 | 0.00786 | 0.0216 | 0.00388 | 0.0109 | < 0.00325 | 0.0035
3 | Cc1ccc(C2=Nc3ccccc3SC(c3cccc([N+](=O)[O-])c3)C2)cc1 (stereo not given) | – | > 100 | – | > 100 | – | > 100 | – | > 100 | – | > 100 | – | 81.3 | – | – | – | 64.6
4 | CN1CCC(n2cnc(-c3ccc(F)cc3)c2-c2ccnc(N)n2)CC1 | 7.63 | > 24.1 | 9.44 | > 25 | 13.8 | > 25 | 5.71 | > 25 | 7.01 | > 25 | 3.99 | 24 | 10.4 | > 25 | 8.57 | > 25
5 | COc1cc(/C=C/[N+](=O)[O-])cc(Br)c1OC | 1.89 | 5.23 | 3.32 | 10.1 | 14.3 | 30.8 | 2.5 | 6.49 | 3.48 | 11.4 | – | – | 2.02 | > 100 | 0.816 | 2.83
6 | CN(CC(N)=O)C(=O)N(CCCl)N=O | – | > 100 | – | > 100 | – | > 100 | – | > 100 | – | > 100 | – | > 100 | – | > 100 | – | > 100
7 | COc1cc2nc(NCCCCCNC(=O)c3ccco3)nc(N)c2cc1OC | – | > 100 | – | 61.3 | – | > 100 | – | > 100 | – | > 100 | – | 42 | – | – | – | 96.4
8 | Cc1c(C2=C(c3cn(C)c4ccccc34)C(=O)NC2=O)c2ccccc2n1C | 1.81 | > 25 | 2.72 | > 25 | > 25 | > 25 | 4.57 | > 25 | 1.29 | > 25 | – | – | 1.18 | > 25 | 0.969 | > 25
9 | CC1(C)CCC[C@]2(C)[C@@H](C=O)C(C=O)=CC[C@@H]12 | – | 23.1 | – | > 100 | – | 33.2 | – | 30.6 | – | – | – | 53 | – | 44.5 | – | 37.4
10 | O=c1[nH]cnc2c(C3NC(CO)C(O)C3O)c[nH]c12 (stereo not given) | > 100 | > 100 | > 100 | > 100 | > 100 | > 100 | > 100 | > 100 | > 100 | > 100 | > 100 | > 100 | – | – | > 100 | > 100
11 | C[C@@H]1O[C@@H](OC[C@H]2O[C@@H](OCCc3ccc(O)c(O)c3)[C@H](O)[C@@H](O)[C@@H]2OC(=O)/C=C/c2ccc(O)c(O)c2)[C@H](O)[C@H](O)[C@H]1O | > 100 | > 100 | > 100 | > 100 | > 100 | > 100 | > 100 | > 100 | > 100 | > 100 | – | – | 93.8 | > 100 | > 100 | > 100
12 | CN(C)c1ccc(N=Nc2ccncc2)cc1 | – | > 100 | – | > 100 | – | > 100 | – | > 100 | – | > 100 | – | 98.6 | – | – | – | –
13 | CN(CCCCCl)P(=O)(OCCS(=O)(=O)CC(NC(=O)CCC(N)C(=O)O)C(=O)NC(C(=O)O)c1ccccc1)OCC1OC(n2cc(F)c(=O)[nH]c2=O)CC1O (stereo not given) | 0.0177 | 25.6 | < 0.01 | 6.99 | > 27.4 | > 100 | < 0.01 | 14 | < 0.01 | – | – | – | – | > 90.9 | 0.266 | > 57.4
14 | CCN(CCO)CC(C)Nc1ccc([N+](=O)[O-])c2sc3ccccc3c(=O)c12 (stereo not given) | 0.304 | 1.09 | 1.27 | 5.55 | 3.68 | 18.5 | 1.01 | 12.1 | 0.379 | 2.27 | 1.6 | 7.7 | – | – | – | –
15 | COC(=O)c1nc(-c2ccccc2)oc1S(=O)(=O)n1nc(C)cc1N | – | – | 27.9 | 84.2 | 13.8 | 28.8 | 1.71 | 3.11 | 17.6 | 36.3 | 1.73 | 3.89 | 0.933 | 3.94 | 2.06 | 4.06
16 | CCCCCn1sc(=O)n(Cc2ccc(CNC(=O)OCc3ccc4cccc(O)c4n3)cc2)c1=O | 0.935 | 2.17 | 2.73 | 14.9 | 1.68 | 3.09 | 1.23 | 2.47 | 1.8 | 3.78 | 1.21 | 2.97 | – | – | 1.07 | 2.74
17 | CN1CCN(Cc2ccc(NC(=O)c3[nH]ncc3Nc3ncnc4sc5c(c34)CCCC5)cc2)CC1 | – | – | 0.286 | 1.45 | 0.383 | 1.73 | 0.19 | 0.969 | 0.136 | 1.05 | 1.48 | 4.81 | 0.173 | 0.527 | 0.241 | 1.08
